According to patent publication US10294236B2, “Compounds as rearranged during transfection (RET) inhibitors” (GLAXOSMITHKLINE INTELLECTUAL PROPERTY DEVELOPMENT LIMITED, priority 2014, dated 2019):

Target: T1, Human RET kinase cytoplasmic domain (Homo sapiens, UniProt P07949)
T1 construct: made in house
T1 sequence (P07949 658-1114): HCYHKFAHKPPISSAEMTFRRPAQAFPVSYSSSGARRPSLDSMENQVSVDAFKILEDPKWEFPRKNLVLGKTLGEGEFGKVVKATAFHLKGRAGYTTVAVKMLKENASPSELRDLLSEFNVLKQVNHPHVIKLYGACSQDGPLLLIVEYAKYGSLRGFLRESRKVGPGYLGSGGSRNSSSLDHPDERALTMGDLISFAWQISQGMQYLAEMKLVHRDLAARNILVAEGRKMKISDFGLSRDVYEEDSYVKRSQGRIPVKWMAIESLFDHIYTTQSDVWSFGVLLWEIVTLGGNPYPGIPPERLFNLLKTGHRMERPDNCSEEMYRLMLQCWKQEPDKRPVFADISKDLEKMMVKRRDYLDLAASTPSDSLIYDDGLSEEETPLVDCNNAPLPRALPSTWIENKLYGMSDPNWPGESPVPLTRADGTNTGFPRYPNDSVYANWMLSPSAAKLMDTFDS
Experiment: RET kinase enzymatic assay
Type: biochemical
Method in brief: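 GST-RET, 0.2 nM in 2× enzyme mix (HEPES, CHAPS, BSA, DTT), preincubated with inhibitor 30 min at 23 °C. Reaction for 1 h at 23 °C after adding 2× substrate mix: 20 μM ATP, 20 mM MgCl2, 1 μM biotinylated peptide. Single wells per concentration; IC50 from sigmoidal dose-response fit.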

IC50	Structure (SMILES)
< 100 nM	CCOc1cc(-c2ccc(NC(=O)Nc3ccc(C(N)=O)c(C(F)(F)F)c3)c(F)c2)c[nH]c1=O [Example 162]
< 100 nM	CCOc1cc(-c2ncc(NC(=O)Nc3cc(C(F)(F)F)cc(S(=O)(=O)NCCN(C)C)c3)c(C)n2)c[nH]c1=O [Example 174, N-(2-(dimethylamino)ethyl)-3-(3-(2-(5-ethoxy-6-oxo-1,6-dihydropyridin-3-yl)-4-methylpyrimidin-5-yl)ureido)-5-(trifluoromethyl)benzenesulfonamide]
< 100 nM	CCOc1cc(-c2ccc(NC(=O)Nc3ccc(Cc4cnn(C)c4)c(C(F)(F)F)c3)c(F)c2)c[nH]c1=O [Example 146]
< 100 nM	CC1(Oc2ccc(NC(=O)Nc3ccc(-c4c[nH]c(=O)c(F)c4)cc3F)cc2C(F)(F)F)COC1 [Example 36, 1-(2-Fluoro-4-(5-fluoro-6-oxo-1,6-dihydropyridin-3-yl)phenyl)-3-(4-((3-methyloxetan-3-yl)oxy)-3-(trifluoromethyl)phenyl)urea]
< 100 nM	CC1(Oc2ccc(NC(=O)Nc3ccc(-c4c[nH]c(=O)c5occc45)cc3F)cc2C(F)(F)F)COC1 [Example 1, 1-(2-Fluoro-4-(7-oxo-6,7-dihydrofuro[2,3-c]pyridin-4-yl)phenyl)-3-(4-((3-methyloxetan-3-yl)oxy)-3-(trifluoromethyl)phenyl)urea]
< 100 nM	CCOc1cc(-c2ccc(NC(=O)Nc3ccc(OC(C)CO)c(C(F)(F)F)c3)c(F)c2)c[nH]c1=O (stereo not drawn) [Example 122]
< 100 nM	CCOc1ccc(NC(=O)Nc2ccc(-c3c[nH]c(=O)c(OCC)c3)cc2F)cc1C(F)(F)F [Example 80]
< 100 nM	CCOc1cc(-c2cc(F)c(NC(=O)Nc3ccc(OC4(C)COC4)c(C(F)(F)F)c3)c(F)c2)c[nH]c1=O [Example 90]
< 100 nM	CNc1cc(-c2ccc(NC(=O)Nc3ccc(OC4(C)COC4)c(C(F)(F)F)c3)c(F)c2)c[nH]c1=O [Example 95]
< 100 nM	CCOc1cc(-c2ncc(NC(=O)Nc3ccc(C(C)O)c(C(F)(F)F)c3)c(C)n2)c[nH]c1=O (stereo not drawn) [Example 10, 1-(2-(5-Ethoxy-6-oxo-1,6-dihydropyridin-3-yl)-4-methylpyrimidin-5-yl)-3-(4-(1-hydroxyethyl)-3-(trifluoromethyl)phenyl)urea]
< 100 nM	Cc1cc(=O)[nH]cc1-c1ccc(NC(=O)Nc2ccc(OC3(C)COC3)c(C(F)(F)F)c2)c(F)c1 [Example 168]
< 100 nM	CCOc1cc(-c2ncc(NC(=O)Nc3ccc(CC4(C)COC4)c(C(F)(F)F)c3)c(C)n2)c[nH]c1=O [Example 13, 1-(2-(5-Ethoxy-6-oxo-1,6-dihydropyridin-3-yl)-4-methylpyrimidin-5-yl)-3-(4-((3-methyloxetan-3-yl)methyl)-3-(trifluoromethyl)phenyl)urea]
< 100 nM	CCOc1cc(-c2cnc(NC(=O)Nc3ccc(OC4(C)COC4)c(C(F)(F)F)c3)cc2C)c[nH]c1=O [Example 62, 1-(5′-Ethoxy-4-methyl-6′-oxo-1′,6′-dihydro-[3,3′-bipyridin]-6-yl)-3-(4-((3-methyloxetan-3-yl)oxy)-3-(trifluoromethyl)phenyl)urea]
< 100 nM	CCOc1cc(-c2ncc(NC(=O)Nc3ccc(C(C)(C)C(N)=O)c(C(F)(F)F)c3)c(C)n2)c[nH]c1=O [Example 63, 2-(4-(3-(2-(5-Ethoxy-6-oxo-1,6-dihydropyridin-3-yl)-4-methylpyrimidin-5-yl)ureido)-2-(trifluoromethyl)phenyl)-2-methylpropanamide]
< 100 nM	CCOc1cc(Oc2ccc(NC(=O)Nc3ccc(OC4(C)COC4)c(C(F)(F)F)c3)cc2)c[nH]c1=O [Example 49, 1-(4-((5-Ethoxy-6-oxo-1,6-dihydropyridin-3-yl)oxy)phenyl)-3-(4-((3-methyloxetan-3-yl)oxy)-3-(trifluoromethyl)phenyl)urea]
< 100 nM	Cc1nc(-c2c[nH]c(=O)c3occc23)ncc1NC(=O)Nc1cnc(C(C)(C)O)c(C(F)(F)F)c1 [Example 39, 1-(6-(2-Hydroxypropan-2-yl)-5-(trifluoromethyl)pyridin-3-yl)-3-(4-methyl-2-(7-oxo-6,7-dihydrofuro[2,3-c]pyridin-4-yl)pyrimidin-5-yl)urea]
< 100 nM	CCOc1cc(-c2ccc(NC(=O)Nc3ccc(OCCO)c(C(F)(F)F)c3)c(F)c2)c[nH]c1=O [Example 143]
< 100 nM	CCOc1cc(-c2ccc(NC(=O)Nc3ccc(CN4CC[C@H](F)C4)c(C(F)(F)F)c3)c(F)c2)c[nH]c1=O [Example 154]
< 100 nM	CCOc1cc(-c2ncc(NC(=O)Nc3cccc(C(F)(F)F)c3)c(C)n2)c[nH]c1=O [Example 42, 1-(2-(5-Ethoxy-6-oxo-1,6-dihydropyridin-3-yl)-4-methylpyrimidin-5-yl)-3-(3-(trifluoromethyl)phenyl)urea]
< 100 nM	CCOc1cc(-c2ccc(NC(=O)Nc3ccc(OC4(C)CC(O)C4)c(C(F)(F)F)c3)c(F)c2)c[nH]c1=O (stereo not drawn) [Example 84]

IC50	Structure (SMILES)
< 100 nM	CCOc1cc(-c2ccc(NC(=O)Nc3ccc(OC4(CO)CCC4)c(C(F)(F)F)c3)c(F)c2)c[nH]c1=O [Example 134]
< 100 nM	CCOc1cc(-c2ccc(NC(=O)Nc3ccc(OC4(C)COC4)c(C(F)(F)F)c3)c(CC)n2)c[nH]c1=O [Example 102]
< 100 nM	CCOc1cc(-c2ccc(NC(=O)Nc3ccc(CC(C)(C)C#N)c(C(F)(F)F)c3)c(F)c2)c[nH]c1=O [Example 81]
< 100 nM	CCOc1cc(-c2ncc(NC(=O)Nc3cc(-n4cnc(C)c4)cc(C(F)(F)F)c3)c(CC)n2)c[nH]c1=O [Example 56, 1-(2-(5-Ethoxy-6-oxo-1,6-dihydropyridin-3-yl)-4-ethylpyrimidin-5-yl)-3-(3-(4-methyl-1H-imidazol-1-yl)-5-(trifluoromethyl)phenyl)urea]
< 100 nM	CCOc1cc(-c2ncc(NC(=O)Nc3ccc(Cl)c(C(F)(F)F)c3)c(C)n2)c[nH]c1=O [Example 60, 1-(4-Chloro-3-(trifluoromethyl)phenyl)-3-(2-(5-ethoxy-6-oxo-1,6-dihydropyridin-3-yl)-4-methylpyrimidin-5-yl)urea]
< 100 nM	CCOc1cc(-c2ccc(NC(=O)Nc3ccc(OC(C)C)c(C(F)F)c3)cc2F)c[nH]c1=O [Example 160]
< 100 nM	CCOc1cc(-c2ccc(NC(=O)Nc3ccc(C(C)(C)C#N)c(C(F)(F)F)c3)c(F)c2)c[nH]c1=O [Example 135]
< 100 nM	CCOc1ccc(NC(=O)Nc2ccc(-c3c[nH]c(=O)c4ccoc34)cc2F)cc1C(F)(F)F [Example 98]
< 100 nM	CCOc1cc(=O)[nH]cc1-c1ncc(NC(=O)Nc2cnc(C(C)(C)O)c(C(F)(F)F)c2)c(C)n1 [Example 28, 1-(2-(4-Ethoxy-6-oxo-1,6-dihydropyridin-3-yl)-4-methylpyrimidin-5-yl)-3-(6-(2-hydroxypropan-2-yl)-5-(trifluoromethyl)pyridin-3-yl)urea]
< 100 nM	CCOc1cc(-c2ccc(NC(=O)Nc3ccc(OC4(C)CCN(C(C)C)C4)c(C(F)(F)F)c3)c(F)c2)c[nH]c1=O (stereo not drawn) [Example 85]
< 100 nM	CCOc1cc(-c2ccc(NC(=O)Nc3ccc(OC4CC(F)(F)C4)c(C(F)(F)F)c3)c(F)c2)c[nH]c1=O [Example 161]
< 100 nM	CC(C)Oc1ccc(NC(=O)Nc2ccc(-c3c[nH]c(=O)c(OCCCF)c3)cc2F)cc1C(F)(F)F [Example 121]
< 100 nM	CCOc1cc(-c2ccc(NC(=O)Nc3ccc(OC4(CO)CC4)c(C(F)(F)F)c3)c(F)c2)c[nH]c1=O [Example 123]
< 100 nM	CCOc1cc(-c2ncc(NC(=O)Nc3ccc(C(C)N(C)C)c(C(F)(F)F)c3)c(C)n2)c[nH]c1=O (stereo not drawn) [Example 176, 1-(4-(1-(Dimethylamino)ethyl)-3-(trifluoromethyl)phenyl)-3-(2-(5-ethoxy-6-oxo-1,6-dihydropyridin-3-yl)-4-methylpyrimidin-5-yl)urea]
< 100 nM	CCOc1cc(-c2ncc(NC(=O)Nc3ccc(CCN4CCCC4)c(C(F)(F)F)c3)c(C)n2)c[nH]c1=O [Example 177, 1-(2-(5-Ethoxy-6-oxo-1,6-dihydropyridin-3-yl)-4-methylpyrimidin-5-yl)-3-(4-(2-(pyrrolidin-1-yl)ethyl)-3-(trifluoromethyl)phenyl)urea]
< 100 nM	CCN1CCN(Cc2cc(F)c(NC(=O)Nc3cnc(-c4c[nH]c(=O)cc4OCCOC)nc3C)cc2C(F)(F)F)CC1 [Example 182, 1-(4-((4-Ethylpiperazin-1-yl)methyl)-2-fluoro-5-(trifluoromethyl)phenyl)-3-(2-(4-(2-methoxyethoxy)-6-oxo-1,6-dihydropyridin-3-yl)-4-methylpyrimidin-5-yl)urea]
< 100 nM	CCOc1cc(-c2ncc(NC(=O)Nc3ccc(OC4(C)COC4)c(C(F)(F)F)c3)c(C)n2)c[nH]c1=O [Example 96]
< 100 nM	CCN1CCN(Cc2cc(F)c(NC(=O)Nc3cnc(-c4c[nH]c(=O)c(OCCO)c4)nc3C)cc2C(F)(F)F)CC1 [Example 172, 1-(4-((4-Ethylpiperazin-1-yl)methyl)-2-fluoro-5-(trifluoromethyl)phenyl)-3-(2-(5-(2-hydroxyethoxy)-6-oxo-1,6-dihydropyridin-3-yl)-4-methylpyrimidin-5-yl)urea]
< 100 nM	COCCOc1cc(=O)[nH]cc1-c1ncc(NC(=O)Nc2cc(C(=O)NCCN(C)C)cc(C(F)(F)F)c2)c(C)n1 [Example 187, N-(2-(dimethylamino)ethyl)-3-(3-(2-(4-(2-methoxyethoxy)-6-oxo-1,6-dihydropyridin-3-yl)-4-methylpyrimidin-5-yl)ureido)-5-(trifluoromethyl)benzamide]
